Test results reported in ChEMBL document CHEMBL3421607, “Design, synthesis and antibacterial activity of cinnamaldehyde derivatives as inhibitors of the bacterial cell division protein FtsZ” (Eur J Med Chem, 2015).
Values after ≈ are worked out from the molar mass of the structure shown.

Legend:
Type in all cases: functional
Staphylococcus aureus [1] = test: microbe, parasite or virus in culture; settings: ATCC 25923, 24 h
Description: Antibacterial activity against penicillin-susceptible Staphylococcus aureus ATCC 25923 after 24 hrs by broth microdilution method

Staphylococcus aureus [2] = test: microbe, parasite or virus in culture; settings: ATCC 29213, 24 h
Description: Antibacterial activity against methicillin-resistant Staphylococcus aureus ATCC 29213 after 24 hrs by broth microdilution method

[3] = test system: Staphylococcus epidermidis; test: Antibacterial activity against penicillin-resistant Staphylococcus epidermidis clinical isolates after 24 hrs by broth microdilution method
Staphylococcus aureus [4] = test: Antibacterial activity against penicillin-resistant Staphylococcus aureus clinical isolates after 24 hrs by broth microdilution method
Escherichia coli [5] = test: microbe, parasite or virus in culture; settings: ATCC 25922, 24 h
Description: Antibacterial activity against penicillin-susceptible Escherichia coli ATCC 25922 after 24 hrs by broth microdilution method

Pseudomonas aeruginosa [6] = test: microbe, parasite or virus in culture; settings: ATCC 27853, 5 h
Description: Inhibition of cell division in penicillin-susceptible Pseudomonas aeruginosa ATCC 27853 assessed as filamentation after 5 hrs by phase contrast microscopy

Bacillus subtilis [7] = test: microbe, parasite or virus in culture; settings: ATCC 9372, 24 h
Description: Antibacterial activity against penicillin-susceptible Bacillus subtilis ATCC 9372 after 24 hrs by broth microdilution method

Streptococcus pyogenes [8] = test: Antibacterial activity against penicillin-resistant Streptococcus pyogenes clinical isolates after 24 hrs by broth microdilution method
Pseudomonas aeruginosa [9] = test: microbe, parasite or virus in culture; settings: ATCC 27853, 24 h
Streptococcus pyogenes [10] = test: Antibacterial activity against penicillin-susceptible Streptococcus pyogenes clinical isolates after 24 hrs by broth microdilution method
Escherichia coli [11] = test: microbe, parasite or virus in culture; settings: ATCC 25922, 5 h
Description: Inhibition of cell division in penicillin-susceptible Escherichia coli ATCC 25922 assessed as filamentation after 5 hrs by phase contrast microscopy

Staphylococcus aureus [12] = test: microbe, parasite or virus in culture; settings: ATCC 25923, 5 h
Description: Inhibition of cell division in penicillin-susceptible Staphylococcus aureus ATCC 25923 assessed as ballooning after 5 hrs by phase contrast microscopy

Bacillus subtilis [13] = test: microbe, parasite or virus in culture; settings: ATCC 9372, 5 h
Description: Inhibition of cell division in penicillin-susceptible Bacillus subtilis ATCC 9372 assessed as filamentation after 5 hrs by phase contrast microscopy

Compound | MIC (Staphylococcus aureus [1]) | MIC (Staphylococcus aureus [2]) | MIC [3] | MIC (Staphylococcus aureus [4]) | MIC (Escherichia coli [5]) | MIC (Pseudomonas aeruginosa [6]) | MIC (Bacillus subtilis [7]) | MIC (Streptococcus pyogenes [8]) | MIC (Pseudomonas aeruginosa [9]) | MIC (Streptococcus pyogenes [10]) | MIC (Escherichia coli [11]) | MIC (Staphylococcus aureus [12]) | MIC (Bacillus subtilis [13])
COc1ccccc1/C=C/C(=O)n1c(C)nc2ccccc21 | 64 µg/mL (≈ 219 µM) | 128 µg/mL (≈ 438 µM) | 16 µg/mL (≈ 54.7 µM) | 64 µg/mL (≈ 219 µM) | 128 µg/mL (≈ 438 µM) | 128 µg/mL (≈ 438 µM) | 128 µg/mL (≈ 438 µM) | > 128 µg/mL | 128 µg/mL (≈ 438 µM) | 128 µg/mL (≈ 438 µM) | 128 µg/mL (≈ 438 µM) | > 128 µg/mL | > 128 µg/mL
O=C(/C=C/c1ccc(Cl)cc1Cl)N1CCOCC1 | > 128 µg/mL | > 128 µg/mL | 64 µg/mL (≈ 224 µM) | > 128 µg/mL | 128 µg/mL (≈ 447 µM) | > 128 µg/mL | > 128 µg/mL | 128 µg/mL (≈ 447 µM) | 128 µg/mL (≈ 447 µM) | > 128 µg/mL | > 128 µg/mL | > 128 µg/mL | > 128 µg/mL
COc1ccc(/C=C/C(=O)Nc2cccnc2)cc1 | 32 µg/mL (≈ 126 µM) | > 128 µg/mL | 128 µg/mL (≈ 503 µM) | 64 µg/mL (≈ 252 µM) | 128 µg/mL (≈ 503 µM) | 128 µg/mL (≈ 503 µM) | 128 µg/mL (≈ 503 µM) | 128 µg/mL (≈ 503 µM) | 128 µg/mL (≈ 503 µM) | > 128 µg/mL | 128 µg/mL (≈ 503 µM) | 4 µg/mL (≈ 15.7 µM) | > 128 µg/mL
COc1ccc(NC(=O)/C=C/c2ccc(Cl)cc2Cl)cc1 | > 128 µg/mL | > 128 µg/mL | > 128 µg/mL | > 128 µg/mL | > 128 µg/mL | > 128 µg/mL | > 128 µg/mL | 128 µg/mL (≈ 397 µM) | > 128 µg/mL | 128 µg/mL (≈ 397 µM) | > 128 µg/mL | > 128 µg/mL | > 128 µg/mL
CCCCCCNC(=O)/C=C/c1ccc(Cl)cc1Cl | > 128 µg/mL | > 128 µg/mL | > 128 µg/mL | > 128 µg/mL | > 128 µg/mL | > 128 µg/mL | > 128 µg/mL | > 128 µg/mL | > 128 µg/mL | 128 µg/mL (≈ 426 µM) | > 128 µg/mL | > 128 µg/mL | 128 µg/mL (≈ 426 µM)
O=C(O)c1cn(C2CC2)c2cc(N3CCNCC3)c(F)cc2c1=O [CIPROFLOXACIN] | 8 µg/mL (≈ 24.1 µM) | 4 µg/mL (≈ 12.1 µM) | > 128 µg/mL | 8 µg/mL (≈ 24.1 µM) |  | > 128 µg/mL | 8 µg/mL (≈ 24.1 µM) | > 128 µg/mL | 4 µg/mL (≈ 12.1 µM) | 8 µg/mL (≈ 24.1 µM) | > 128 µg/mL | > 128 µg/mL | > 128 µg/mL
COc1cc(/C=C/C(=O)n2c(C)nc3ccccc32)cc(OC)c1OC | > 128 µg/mL | > 128 µg/mL | 128 µg/mL (≈ 363 µM) | > 128 µg/mL | 128 µg/mL (≈ 363 µM) | > 128 µg/mL | > 128 µg/mL | 128 µg/mL (≈ 363 µM) | > 128 µg/mL | 128 µg/mL (≈ 363 µM) | > 128 µg/mL | 64 µg/mL (≈ 182 µM) | > 128 µg/mL
Cc1nc2ccccc2n1C(=O)/C=C/c1ccc([N+](=O)[O-])cc1 | 16 µg/mL (≈ 52.1 µM) | > 128 µg/mL | 128 µg/mL (≈ 417 µM) | 128 µg/mL (≈ 417 µM) | 128 µg/mL (≈ 417 µM) | > 128 µg/mL | 128 µg/mL (≈ 417 µM) | 16 µg/mL (≈ 52.1 µM) | 128 µg/mL (≈ 417 µM) | 64 µg/mL (≈ 208 µM) | > 128 µg/mL | 0.5 µg/mL (≈ 1.63 µM) | > 128 µg/mL
CCN(CC)C(=O)/C=C/c1ccc(Cl)cc1Cl | > 128 µg/mL | 128 µg/mL (≈ 470 µM) | 32 µg/mL (≈ 118 µM) | > 128 µg/mL | > 128 µg/mL | > 128 µg/mL | > 128 µg/mL | 128 µg/mL (≈ 470 µM) | 128 µg/mL (≈ 470 µM) | 128 µg/mL (≈ 470 µM) | > 128 µg/mL | 128 µg/mL (≈ 470 µM) | > 128 µg/mL
Cc1nccn1-c1cc(NC(=O)/C=C/c2ccc([N+](=O)[O-])cc2)cc(C(F)(F)F)c1 | 128 µg/mL (≈ 307 µM) | > 128 µg/mL | > 128 µg/mL | > 128 µg/mL | > 128 µg/mL | 128 µg/mL (≈ 307 µM) | 128 µg/mL (≈ 307 µM) | 128 µg/mL (≈ 307 µM) | > 128 µg/mL | 32 µg/mL (≈ 76.9 µM) | > 128 µg/mL | 32 µg/mL (≈ 76.9 µM) | 128 µg/mL (≈ 307 µM)
CC(C)NC(=O)/C=C/c1ccc(Cl)cc1Cl [3-(2,4-DICHLOROPHENYL)-N-ISOPROPYLACRYLAMIDE] | > 128 µg/mL | > 128 µg/mL | > 128 µg/mL | > 128 µg/mL | 128 µg/mL (≈ 496 µM) | > 128 µg/mL | > 128 µg/mL | > 128 µg/mL | 128 µg/mL (≈ 496 µM) | 64 µg/mL (≈ 248 µM) | > 128 µg/mL | 32 µg/mL (≈ 124 µM) | 32 µg/mL (≈ 124 µM)
CCCCNC(=O)/C=C/c1ccc(Cl)cc1Cl [N-BUTYL-3-(2,4-DICHLOROPHENYL)ACRYLAMIDE] | > 128 µg/mL | > 128 µg/mL | > 128 µg/mL | > 128 µg/mL | > 128 µg/mL | > 128 µg/mL | > 128 µg/mL | 128 µg/mL (≈ 470 µM) | 128 µg/mL (≈ 470 µM) | 64 µg/mL (≈ 235 µM) | > 128 µg/mL | > 128 µg/mL | > 128 µg/mL
CCCNC(=O)/C=C/c1ccc(Cl)cc1Cl [3-(2,4-DICHLOROPHENYL)-N-PROPYLACRYLAMIDE] | > 128 µg/mL | > 128 µg/mL | > 128 µg/mL | > 128 µg/mL | 128 µg/mL (≈ 496 µM) | > 128 µg/mL | > 128 µg/mL | > 128 µg/mL | 128 µg/mL (≈ 496 µM) | 128 µg/mL (≈ 496 µM) | > 128 µg/mL | 64 µg/mL (≈ 248 µM) | 32 µg/mL (≈ 124 µM)
COc1ccc(/C=C/C(=O)n2c(C)nc3ccccc32)cc1OC | > 128 µg/mL | > 128 µg/mL | > 128 µg/mL | > 128 µg/mL | 128 µg/mL (≈ 397 µM) | > 128 µg/mL | > 128 µg/mL | 64 µg/mL (≈ 199 µM) | 128 µg/mL (≈ 397 µM) | 64 µg/mL (≈ 199 µM) | 128 µg/mL (≈ 397 µM) | 64 µg/mL (≈ 199 µM) | > 128 µg/mL
